Test system: voltage-gated calcium current in HN2A12 cells
Type: cell-based, murine

| Compound | inhibition of the voltage-gated calcium current | block of the calcium current (N-type part) |
| --- | --- | --- |
| [Cl][Cd][Cl] [CdCl2] | completely inhibited |  |
| ω-conotoxin-GVIA |  | about 38% |

From patent US20070190039A1, “Novel cell lines, and methods of preparation and use thereof” (priority 2003, published 2007)
